Assays:
Candida albicans, SLU-1 = experiment: 28-day comparative survival efficacy study in mice systemically infected with Candida albicans; format: in vivo, male DBA/2 mice; conditions: mice infected iv with C. albicans SLU-1; two doses less than 5 mg/kg; initial experiments (p>0.5)
Protocol: Derivatized peptide-based constructs are tested for activity upon oral administration (oral activity) in a 28-day comparative survival efficacy study in mice systemically infected with Candida albicans. Specifically, male DBA/2 mice (Charles River Laboratories) six weeks of age are dosed with 7.9×10^4 Candida albicans, SLU-1 in 100 μL intravenously via the tail vein in a single dosage on day zero (0). However, other routes of administration, including intraperitoneal (ip) and subcutaneous (sc) routes may be administered. Amphotericin B will provide complete protection at 0.5 mg/kg qod (100% survival). Mortality data will be subjected to Kaplan-Meier survival analysis. All treatment groups may be considered statistically significant vs. saline at p values <0.05.
Treatment begins immediately thereafter with 400 μL oral gavage of either 0.5% dextrose, or derivative compound in 0.5% dextrose at various dosage levels (e.g., 10 mg/kg or 20 mg/kg) according to a prescribed dosing regimen (e.g. every other day for a total of eight times). Amphotericin B (Fungizone®) is administered intravenously at 0.5 mg/kg as a positive control every other day for a total of eight times. Twice-day monitoring (once daily on weekends and holidays) for mortality is performed. The animals treated with antiflngal derivative compound show improvement in mortality compared with the dextrose-treated controls, preferably statistically significant improvement (p-value of […]).

Candida albicans SLU-1 = experiment: Radial diffusion assay; format: cell-based; conditions: 30 mm^2 area of growth inhibition, calculated by PROBIT analysis
Protocol: In the radial diffusion assay procedures, the CA-1 cultures and derivatized peptide solutions were prepared as in the broth microdilution assay procedure described above, i.e., CA-1 was grown to exponential phase in SDB. Ten (10) mL of molten underlayer agarose comprising 3% Sabouraud Dextrose broth, 1% agarose (Pharmacia, Piscataway, N.J.), 0.02% Tween 20, and 10 mM sodium phosphate at pH 7.4, was added to polystyrene tubes and maintained in a 56° C. water bath until the addition of yeast. Tubes were cooled to approximately 45° C., yeast were added to give a final concentration of 1×10^6 CFU/mL, and the tubes were mixed again by inverting. The contents were poured into leveled, square petri dishes and distributed evenly. […] A series of wells were punched into the hardened agarose using a sterile 3 mm punch attached to a vacuum apparatus to achieve a uniform, 3 mm diameter well.
Derivatized peptide sequences to be assayed were 2-fold serially diluted in 10 mM Dulbecco's PBS (D-PBS) starting from a concentration of approximately […]. Five μL of each dilution were added to each well and the plates were incubated at 37° C. for 3 hours to allow for complete diffusion of the test compounds. An overlayer of 10 mL of molten agarose comprising 6% Sabouraud Dextrose broth, 1% agarose, and 10 mM sodium phosphate, pH 7.4, (at approximately 45° C.) was then added and plates were incubated overnight at 37° C. Following this overnight incubation, a dilute Coomassie solution was poured into the plates and allowed to stain for 24 hours to enhance visualization of the zones.
Clear zones of growth inhibition around each well were measured with calipers. The actual area of growth inhibition (mm^2) was calculated by subtracting the area of the well. Table II below sets out the results of the radial diffusion assays for a series of tested peptide-based constructs in terms of the number of picomoles (pmol) of compound required to establish a 30 mm^2 area of growth inhibition of Candida albicans SLU-1 calculated by PROBIT analysis (e.g., calculated from regression of the linear portion of log-concentration dose-response curve, log pmol/well vs. net area of inhibition).

[1] = system: Candida albicans designated CA-1, Strain SLU-1; format: cell-based; conditions: C. albicans SLU1; 24 hours at 37° C.; OD 595 nm below 0.1
Protocol: In each broth microdilution assay screening procedure, a colony of Candida albicans designated CA-1, Strain SLU-1 that was received from the laboratories of G. Matuschak and A. Lechner, St. Louis University Hospital, St. Louis, Mo., where the strain was maintained, was inoculated into a tube containing 5 mL Sabouraud Dextrose broth (2% dextrose, 1% neopeptone) and incubated at 37° C. with shaking. The overnight culture was diluted 1:50 into 5 ml of fresh broth and incubated for 3 hours at 37° C. to exponential phase growth. Organisms were pelleted by centrifugation in a Beckman J-6M centrifuge for 5 minutes at 3000 rpm (1500×g) and the pellets were resuspended in 5 mL phosphate buffered saline (PBS) and the optical density (OD) at 570 nm was determined. On the basis of the determination that one OD unit equals 3×10^7 colony forming units/mL (CFU/mL), yeast cells were diluted to 5×10^3 CFU/mL in Sabouraud Dextrose broth (SBD).
Derivatized peptide sequences based on Domain III of BPI to be screened which were originally constituted in Dulbecco's-PBS, were two-fold serially diluted in SDB starting from a concentration of 128 μg/mL. Equal volumes (100 μL) of yeast suspension as prepared above and derivatized peptide solution were added to wells of a 96-well sterile, flat bottom, non-pyrogenic tissue culture microtiter plate (Costar, Cambridge, Mass.) to reach a final volume of 200 μL/well. The plate was incubated on a shaker at 37° C. for 24 hours. All assays were performed in triplicate. Following the incubation period, plates were read in an ELISA plate reader at 595 nm wavelength to determine the minimum inhibitory concentration (MIC), i.e., the lowest concentration required to reduce the optical density at 595 nm to below 0.1 OD.

Compound: CC[C@@H](C)[C@@H](NC(=O)[C@@H](CC(C)C)NC(=O)[C@@H](Cc1c[nH]c2ccccc12)NC(=O)[C@@H](CCCCN)NC(=O)c1ccccc1O)C(=O)N[C@H](CCC(N)=O)C(=O)N[C@H](CC(C)C)C(=O)N[C@H](Cc1ccccc1)C(=O)N[C@H](Cc1c[nH]cn1)C(=O)N[C@H](CCCCN)C(=O)N[C@H](CCCCN)C(N)=O [XMP.560]
- improvement in mortality compared with dextrose-treated controls (Candida albicans, SLU-1): did not exhibit statistically significant improvement
- Radial Diffusion (pmol to achieve 30 mm^2 zone C. albicans SLU1) (Candida albicans SLU-1): 451 pmol
- Broth Microdilution (MIC values in μg/mL C. albicans SLU1) [1]: 2 µg/mL

— patent publication US6355616B1, “Derivative compounds derived from or based on bactericidal/permeability-increasing protein” (priority 1999, dated 2002)
